The record followed here is patent US5883084A, “Treatment of respiratory diseases utilizing α-tocopheryl-phosphocholine” (Clarion Pharmaceuticals Inc., priority 1998, dated 1999).

The test system of one experiment is Mouse Tracheal Mucus. In words: Mucolytic activity in mouse tracheal mucus (phenol red secretion, aerosol). The experiment is classed as in vivo. The settings on record: mice, 25 mg/mL in saline, approximately 100 mg/kg, 5 mice, saline control zero percent. From the text: The invention provides a method of alleviating respiratory distress due to tenacious pulmonary mucous secretions in a patient suffering from such distress. In the preferred embodiment, the method is accomplished by the intermittent inhalation of an aerosol or dry powder formulation of α-tocopheryl-phosphocholine to deliver an effective mucolytic amount of α-tocopheryl-phosphocholine to the lung airways. […] The in vivo mucolytic assay is similar to that described by Chand et al. Agents and Actions, (1993) 38:165-170, incorporated herein by reference.
The procedure, which delivers the test compound to mice as an aerosol, is a modified assay for the evaluation of mucolytic activity in mice as described by Chand et al., previously cited.
1. The test animals are Hsd:1CR(CD-1) mice that weigh approximately 25 g each.
2. The test compound is diluted in normal saline to a concentration of 25 mg/mL and administered using a human De Vilbiss atomizer Model No. 15 at approximately 100 mg/kg. The control group receives saline. The nozzle is placed in the mouth of the mouse and 2 spray doses are given.
3. After 30 minutes, phenol red dissolved as a 5% solution in saline is given IP at a dose of 0.1 mL/10 g body weight.
4. […]
6. The amount of phenol red secreted into the trachea is quantitated photometrically at 546 nm. […]

For experiment [1], the system named is RAW 264.7 murine monocyte/macrophage cell line (PMA-stimulated respiratory burst). In words: In vitro anti-inflammatory activity by inhibition of macrophage activation (luminol chemiluminescence, PMA-stimulated). The class given is cell-based, mouse. As to conditions: for inhibition at 1000 µM / inhibition at 3000 µM / inhibition at 10000 µM / inhibition at 30000 µM: Mus musculus, RAW264.7, RAW 264.7, PMA 100 ng, luminol; for inhibition at 1000 µM: 1 mM; for inhibition at 3000 µM: 3 mM; for inhibition at 10000 µM: 10 mM; for inhibition at 30000 µM: 30 mM. As for the experimental part: Activation of alveolar macrophages is a critical component of pulmonary inflammation. In their activated state, alveolar macrophages secrete a variety of inflammatory mediators and reactive oxygen species. In the present in vitro model of inflammation, mouse macrophages are activated by phorbol-12-myristate-13-acetate (PMA). The intensity of macrophage activation in the presence or absence of the subject compounds is determined by measuring the respiratory burst (release of reactive oxygen species) of the macrophages.
The RAW 264.7 cell line (American Type Culture Collection, Rockville, Md., USA, Accession No. TIE 71) is a murine monocyte/macrophage line, the cells of which show many of the differentiative functions of a macrophage. Like macrophages, the cells are capable of phagocytosis and undergo an oxidative burst (increased oxygen consumption) and production of oxygen radicals (e.g., superoxide) in response to appropriate signals. Agents that inhibit the activation of these cells in vitro so as to inhibit the respiratory burst and corresponding production of oxygen radicals associated with activation interdict a critical step in the inflammatory process.
The respiratory burst and corresponding production of oxygen radicals that accompany macrophage activation can be measured in a variety of ways, including chemiluminescence based on the reaction of the oxygen radicals with luminol added to the culture medium (see M. A. Trush et al., 1978, "The Generation of Chemiluminescence by Phagocytic Cells.", Methods in Enzymology 57: 462-494). Chemiluminescence generated from luminol in the culture medium of macrophage cell lines is recognized in the art as a marker of macrophage activation. Materials:
Cell line: RAW 264.7 (ATCC TIB-71, attachment dependent);
Culture medium: Dulbecco's Modified Eagle's Medium (DMEM, Sigma Chemical Co. Cat. No. D-7777) with 10% Fetal Bovine Serum (FBS);
Standard protocol for culturing cell lines: in T-75 or T-150 flasks; 37° C.; 95% air, 5% CO2; 100% humidity;
Cell line is passaged when approximately 80% confluent; with trypsin (1 mg/mL) and ethylenediamine tetraacetic acid (EDTA) (1 mM in Ca-Mg free Hank's balanced salt solution); at 1:4 to 1:5 split;
All procedures are performed aseptically in a Class II biological safety cabinet using standard Biosafety Level 2 (BL-2 containment procedures. In order to prevent genetic drift in stock cell lines, fresh cultures are prepared at approximately monthly intervals with cells thawed from liquid nitrogen storage. Methodology:
After cell passage, count cells with a hemocytometer; Adjust cell concentration to approximately 1,000,000 cells per mL;
Suspend cells in DMEM lacking phenol red and without FBS;
Pipette 1 mL of cell suspension into a standard luminometer cuvette (12×75 mm), commercially obtainable from Analytical Luminescence Laboratories, San Diego, Calif., USA;
Add luminol to final concentration of 0.2 mM;
Add test compound dissolved in phosphate buffered saline (PBS), or in dimethyl sulfoxide (DMSO) for final concentration levels ranging from 1 to 30 mM;
Add 100 nanograms of phorbol myristate acetate (PMA); and
Wait 1 minute and read photo counts (i.e., luminescence) on a Monolight 2010 luminometer available from Analytical Luminescence Laboratories, San Diego.

For another experiment, the system named is premature fetal rabbits. In words: Surfactant activity in RDS model using premature fetal rabbits (dynamic lung compliance). The experiment is classed as in vivo, rabbit. The settings on record: fetal rabbits 27 days gestation, 0.2 mL endotracheal instillation, 30 minute intervals for 90 minutes. The protocol: A common in vivo model for the evaluation of surfactants is lung compliance in premature fetal rabbits. This method is described in Revak et al., Am. Rev. Respir. Dir. (1986) 134:1258-1265. In this assay, the effectiveness of the subject compounds as lung surfactants is determined by evaluating dynamic lung compliance in premature fetal rabbits which are known to have difficulty initiating breathing due to low levels of natural lung surfactant.
1. The test animals are fetal rabbits delivered prematurely at 27 days of gestation.
2. The test solution is prepared by suspending the Formula I compound ([…]) in 6 mL of 10 mM HEPES buffer with sodium chloride (150 mM) at a pH of 7.4.
3. 0.2 mL of test solution is administered to the fetal rabbit before breathing commenced by endotracheal instillation and then monitored for breathing. The control group receives saline.
4. The fetal rabbit is ventilated and monitored for breathing.
5. After 30 minutes, the rabbit is examined for quality of breathing and color. A healthy pink color is indicative of good breathing. […] The higher the value of measured compliance, the better the breathing of the test animal.
6. Compliance values are determined at 30 minute intervals for 90 minutes.

The subject of experiment [2] is Histamine-Induced Airway Resistance. In words: Histamine-induced airway resistance in anesthetized guinea pigs (total pulmonary resistance). The class given is in vivo, guinea pig. The settings on record: after induction with histamine, salbutamol 10 μg/kg or same equivalent dosage. As for the experimental part:
The following is a protocol for the evaluation of anti-histamine activity in anesthetized guinea pigs.
1. Guinea pigs of 650-1000 g are used to facilitate catheterization of the jugular vein and carotid artery. The guinea pigs are anesthetized with 35-45 mg/kg pentobarbital sodium. When or if the recordings are unstable, anesthetic additions are made during the course of the intervention. The cutdown is a ventral medial incision over the cervical area so that the trachea, jugular vein and carotid artery can be cannulated. The animals are immediately attached to a volume regulated Harvard® rodent respirator, Model 683, via a tracheostomy and the respirator is set at 60 respirations per minute and a volume of 8 ml/kg to maintain a normal arterial P-CO2 of approximately 40 mmHg. […] These two parameters are measured before and after each drug is given and at each increment in the dose response studies with each drug candidate and recorded. Total pulmonary resistance (TPR) is calculated as the difference between the expiratory pressure and inspiratory pressures with a constant volume.
After the anesthetic and muscle relaxant are given, the animal is allowed to stabilize. […] The dose-related increases or decreases are quantitated against these controls to determine the percent inhibition of histamine activity. […]

Broadly, the inhibition is the relative decrease from the control value, in per cent. For `Cc1c(C)c2c(c(C)c1OP(=O)([O-])OCC[N+](C)(C)C)CCC(C)(CCCC(C)CCCC(C)CCCC(C)C)O2` (stereo not drawn) [CPR 2001, α-tocopheryl-phosphocholine], the “average measured percent change in mucolytic activity” value with Mouse Tracheal Mucus is “about 82.6%”. Further, in experiment [1] (1 to 30 mM, in contrast to α-tocopherol), the “anti-inflammatory activity with increasing concentration” value was “anti-inflammatory activity markedly increases”. In addition, in experiment [1], the inhibition at 1000 µM was determined as 5%, the inhibition at 3000 µM came to 13%, the inhibition at 10000 µM came out at 31% and the inhibition at 30000 µM worked out at 56%. Further, the “compliance values (dynamic lung compliance)” value in the experiment on premature fetal rabbits is reported as “significantly greater compliance values”.
On to `CC(=O)N[C@@H](CS)C(=O)O` [N-acetylcysteine, reference compound], for which the “average measured percent change in mucolytic activity” value in the experiment with Mouse Tracheal Mucus is “about 59.5%”.
In the case of `CC(C)(C)NCC(O)c1ccc(O)c(CO)c1` (stereo not shown) [salbutamol], in experiment [2], the “TPR course after administration” value was “briefly increased and then decreased below the control value”.
For `Cc1c(C)c2c(c(C)c1O)CCC(C)(CCCC(C)CCCC(C)CCCC(C)C)O2` (stereo not drawn) [α-tocopherol, reference compound], in experiment [1], the inhibition at 1000 µM was -3%, the inhibition at 3000 µM was -6%, the inhibition at 10000 µM was -6% and the inhibition at 30000 µM is -14%.
